Results published in US20230096766A1, “AMINO ACID HAVING FUNCTIONAL GROUP CAPABLE OF INTERMOLECULAR HYDROGEN BONDING, PEPTIDE COMPOUND CONTAINING SAME AND METHOD FOR PRODUCTION THEREOF” (Chugai Seiyaku Kabushiki Kaisha, priority 2018, published 2023).
*1 amine or outer side, *2 acyl side, *3 side chain or, on linkers, in order; H or OH if unused. Where a SMILES comes first, the peptide text is derived from it. Bridges are numbered along the chain shown (N, C = ends). [ ]: non-standard residue; d: D form. The star is where a group is joined. NMeAbu(3,3-F2-piperidino) = CN[C@@H](CCN1CCCC(F)(F)C1)C(=O)O; hPhe(3-OMe,4-CONHMe) = CNC(=O)c1ccc(CC[C@H](N)C(=O)O)cc1OC; X11 = CNC(=O)c1ccc(CCN(CC(=O)[*:2])[*:1])cc1OC; Tyr(3-F) = N[C@@H](Cc1ccc(O)c(F)c1)C(=O)O; NMeW = CN[C@@H](Cc1c[nH]c2ccccc12)C(=O)O; X9 = O=C([C@@H](CN[*:1])COCCO)[*:2]; NMeF = CN[C@@H](Cc1ccccc1)C(=O)O; NMeI = CC[C@H](C)[C@H](NC)C(=O)O; NMeL = CN[C@@H](CC(C)C)C(=O)O; Propyl(2R-OH) = C[C@@H](O)C*; NMeV = CN[C@H](C(=O)O)C(C)C; NMeAbu = CC[C@H](NC)C(=O)O; NMeA = CN[C@@H](C)C(=O)O; Piperidide = C1CCN(*)CC1; X8 = C1COC[C@@H](C*)N1; NBuGly = CCCCNCC(=O)O; Isopentyl = CC(C)CC*; NPrGly = CCCNCC(=O)O; Sar = CNCC(=O)O; tBu = CC(C)(C)*

Assay: in vitro
Settings: human, Caco-2, Caco-2

| SMILES | Papp [×10⁻⁶ cm/s] |
| --- | --- |
| CC(C)CCOC[C@@H]1NC(=O)[C@H](CCN2CCCC(F)(F)C2)N(C)C(=O)[C@H](Cc2ccccc2)N(C)C(=O)CN(C)C(=O)[C@H]([C@@H](C)O)NC(=O)[C@H](CC(C)C)N(C)C(=O)[C@H](CC(C)C)NC(=O)[C@H](Cc2ccccc2)N(C)C(=O)CN(C)C(=O)C[C@@H](C(=O)N2CCCCC2)NC(=O)[C@H](CC(C)C)N(C)C1=O [pd393] ([Sar][NMeF]L[NMeL]T[Sar][NMeF][NMeAbu(3,3-F2-piperidino)]S(Isopentyl)[NMeL]D-Piperidide; lactam N-11) | 2.8 |

Same assay, conditions: human, Caco-2, Caco-2 (cm/sec)

| SMILES | Papp [×10⁻⁶ cm/s] |
| --- | --- |
| CC[C@H](C)[C@H]1C(=O)N[C@@H]([C@@H](C)O)C(=O)N(C)CC(=O)N(C)[C@@H](CC(C)C)C(=O)N[C@H](C(=O)N2CCCCC2)CC(=O)N(C)[C@@H](C(C)C)C(=O)N[C@@H](CC(C)C)C(=O)N(C)[C@@H](CC(C)C)C(=O)N(C)[C@@H](Cc2ccccc2)C(=O)N[C@@H](COC[C@@H](C)O)C(=O)N(C)[C@@H](Cc2ccccc2)C(=O)N1C [AP76] ([NMeV]L[NMeL][NMeF]S(Propyl(2R-OH))[NMeF][NMeI]T[Sar][NMeL]D-Piperidide; lactam N-11) | 0.84 |
| CC(C)C[C@@H]1NC(=O)[C@H](CC(C)C)N(C)C(=O)[C@H](Cc2ccccc2)N(C)C(=O)CN(C)C(=O)[C@H]([C@@H](C)O)NC(=O)[C@H](CC(C)C)N(C)C(=O)[C@H](Cc2ccc(O)c(F)c2)NC(=O)[C@H](CC(C)C)N(C)C(=O)CN(C)C(=O)C[C@@H](C(=O)N2CCCCC2)NC(=O)[C@H](CC(C)C)N(C)C1=O [pd123] ([Sar][NMeL][Tyr(3-F)][NMeL]T[Sar][NMeF][NMeL]L[NMeL]D-Piperidide; lactam N-11) | 0.44 |
| CC[C@H]1C(=O)N[C@@H](CC(C)C)C(=O)N(C)[C@@H](CC(C)C)C(=O)N(C)[C@@H](Cc2ccccc2)C(=O)N[C@@H](Cc2ccc(O)cc2)C(=O)N(C)[C@@H](CC(C)C)C(=O)N(C)[C@@H](CC(C)C)C(=O)N[C@@H]([C@@H](C)O)C(=O)N(C)CC(=O)N(C)[C@@H](CC(C)C)C(=O)N[C@H](C(=O)N2CCCCC2)CC(=O)N1C [Compound F05] ([NMeAbu]L[NMeL][NMeF]Y[NMeL][NMeL]T[Sar][NMeL]D-Piperidide; lactam N-11) | 0.38 |
| CC[C@H](C)[C@@H]1NC(=O)[C@H](CC(C)C)N(C)C(=O)[C@@H](C)NC(=O)C[C@@H](C(=O)N2CCCCC2)NC(=O)[C@H](CC(C)C)N(C)C(=O)[C@H](Cc2ccccc2)N(C)C(=O)[C@H](COC(C)(C)C)NC(=O)[C@H](CC(C)C)N(C)C(=O)[C@H](CC)N(C)C(=O)[C@H]([C@@H](C)O)NC(=O)CN(CCc2ccc(C(=O)NC)c(OC)c2)C1=O [AP222] ([dA][NMeL]I[X11]T[NMeAbu][NMeL]S(tBu)[NMeF][NMeL]D-Piperidide; lactam N-11) | 0.31 |
| CCCCN1CC(=O)N(C)[C@@H](Cc2ccccc2)C(=O)N[C@@H]([C@@H](C)CC)C(=O)N(C)[C@@H](CC(C)C)C(=O)N[C@@H]([C@@H](C)O)C(=O)N(CCC)CC(=O)N(C)[C@@H](Cc2ccccc2)C(=O)N(C)[C@@H](CC(C)C)C(=O)NC[C@@H](COCCO)C(=O)N(C)[C@@H](CC(C)C)C(=O)N[C@H](C(=O)N2CCCCC2)CC1=O [AP134] ([NBuGly][NMeF]I[NMeL]T[NPrGly][NMeF][NMeL][X9][NMeL]D-Piperidide; lactam N-11) | 0.62 |
| CC(C)C[C@H]1C(=O)N(C)[C@@H](Cc2c[nH]c3ccccc23)C(=O)N(C)[C@@H](Cc2ccccc2)C(=O)N[C@@H]([C@@H](C)O)C(=O)N(C)[C@@H](C)C(=O)N(C)[C@@H](CC(C)C)C(=O)N[C@H](C(=O)N2CCCCC2)CC(=O)N(C)[C@@H](C)C(=O)N(C)[C@@H](CC(C)C)C(=O)N(C)[C@@H](CC(C)C)C(=O)N[C@@H](C)C(=O)N1C [pd104] ([NMeA][NMeL][NMeL]A[NMeL][NMeW][NMeF]T[NMeA][NMeL]D-Piperidide; lactam N-11) | 0.025 |
| CC[C@H](C)[C@@H]1NC(=O)[C@H](Cc2ccccc2)N(C)C(=O)[C@H](CCc2ccc(C(=O)NC)c(OC)c2)NC(=O)[C@H](CC(C)C)N(C)C(=O)[C@H](C(C)C)NC(=O)[C@H](CC(C)C)N(C)C(=O)[C@H](CC(C)C)N(C)C(=O)CNC(=O)[C@H](CC)N(C)C(=O)C[C@@H](C(=O)N2CCCCC2)NC(=O)[C@H]([C@@H](C)O)NC(=O)[C@H](CC(C)C)N(C)C(=O)[C@H](CC(C)C)N(C)C1=O [AP266] ([NMeAbu]G[NMeL][NMeL]V[NMeL][hPhe(3-OMe,4-CONHMe)][NMeF]I[NMeL][NMeL]TD-Piperidide; lactam N-13) | < 0.0895 |
| CCCCN1CC(=O)N(C)[C@@H](Cc2ccccc2)C(=O)N(C)[C@@H](CC(C)C)C(=O)N[C@@H](CC(C)C)C(=O)N(C)[C@@H](CC(C)C)C(=O)N[C@H](C(=O)N2CCCCC2)CC(=O)N(C)CC(=O)N(C)[C@@H](CC)C(=O)N[C@@H](C(C)C)C(=O)N(C)[C@@H](CC)C(=O)N[C@@H](COC[C@@H]2COCCN2)C1=O [AP247] ([Sar][NMeAbu]V[NMeAbu]S(X8)[NBuGly][NMeF][NMeL]L[NMeL]D-Piperidide; lactam N-11) | 0.69 |
